Columns and labels:
[1] = biological target: T1, recombinant human ALK5 (TGF-βR1) protein (Homo sapiens, UniProt P36897); experiment: Biochemical ALK5 (TGF-βR1) assay to measure pKi (LANCE Ultra ULight kinase assay); conditions: apparent pKi, converted from pIC50 by Cheng-Prusoff
T1 construct: purchased Life Technologies PR9075A
T1 sequence (P36897 34-503): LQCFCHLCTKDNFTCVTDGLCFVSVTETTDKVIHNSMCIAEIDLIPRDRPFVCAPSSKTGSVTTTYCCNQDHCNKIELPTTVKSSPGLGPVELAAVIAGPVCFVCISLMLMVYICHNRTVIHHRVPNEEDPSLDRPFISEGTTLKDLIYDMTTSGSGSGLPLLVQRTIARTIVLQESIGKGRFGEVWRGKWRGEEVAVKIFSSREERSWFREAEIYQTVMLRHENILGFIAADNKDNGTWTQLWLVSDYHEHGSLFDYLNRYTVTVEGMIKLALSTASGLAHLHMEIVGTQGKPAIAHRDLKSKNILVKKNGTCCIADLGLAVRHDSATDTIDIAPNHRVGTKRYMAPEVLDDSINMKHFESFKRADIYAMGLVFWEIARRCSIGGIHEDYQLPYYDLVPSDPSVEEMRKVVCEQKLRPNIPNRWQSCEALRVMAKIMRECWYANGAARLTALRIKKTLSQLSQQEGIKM
Outline: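 Cmpd + enzyme, 60 min RT; ATP from 125 μM (5×) stock, 60 min 37 °C; stop 12 mM EDTA/Eu anti-pThr1342 Topo2α Ab (pH 7.0 buffer); TR-FRET 665 nm. DMSO = max, SD-208 = min signal. 4-PL pIC50 → pKi (Cheng-Prusoff).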

[2] = tested on: TGF-β-stimulated SMAD3 phosphorylation in BEAS-2B cells; experiment: Cellular ALK5 potency assay, inhibition of TGF-β stimulated pSMAD3 formation in BEAS-2B cells; format: cell-based; conditions: Homo sapiens, pSMAD3, TGF-β 10 ng/mL, read-out: BEAS2B pIC50 (converted)
Outline: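 Human lung epithelial BEAS-2B cells were pre-treated with compound for 1 h at 37 °C, then stimulated with TGF-β (final 10 ng/mL) for 30 min before lysis. pSMAD3 was quantified by AlphaLISA and pIC50 derived from dose-dependent signal change versus TGF-β-stimulated untreated cells.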

| Compound | Ki [1] [nM] | IC50 [2] [nM] |
| --- | --- | --- |
| Cc1cccc(-c2nccc(Nc3ccnc(Nc4ccc(N5CCNCC5)cn4)n3)n2)n1 [Compound 121, N4-(2-(6-methylpyridin-2-yl)pyrimidin-4-yl)-N2-(5-(piperazin-1-yl)pyridin-2-yl)pyrimidine-2,4-diamine] | 0.398 to 3.16 | 25.1 to 158 |
| Cc1cccc(-c2nccc(Nc3ccnc(Nc4ccc(S(=O)(=O)N(C)C5CCNCC5)cc4)n3)n2)n1 [Compound 122, N-methyl-4-[[4-[[2-(6-methyl-2-pyridyl)pyrimidin-4-yl]amino]pyrimidin-2-yl]amino]-N-(4-piperidyl)benzenesulfonamide] | 0.0398 to 0.316 | 25.1 to 158 |
| Cc1cccc(-c2nccc(Nc3ccnc(Nc4ccc(N5CCC(N6CCCC6)CC5)cc4)n3)n2)n1 [Compound 123, N4-[2-(6-methyl-2-pyridyl)pyrimidin-4-yl]-N2-[4-(4-pyrrolidin-1-yl-1-piperidyl)phenyl]pyrimidine-2,4-diamine] | ≤ 0.0316 | 25.1 to 158 |
| Cc1cccc(-c2nccc(Nc3ccnc(Nc4ccc(CN5CCC(C(=O)O)C5)cc4)n3)n2)n1 (stereo not drawn) [Compound 124, 1-[[4-[[4-[[2-(6-methyl-2-pyridyl)pyrimidin-4-yl]amino]pyrimidin-2-yl]amino]phenyl]methyl] pyrrolidine-3-carboxylic acid] | 0.0398 to 0.316 | 25.1 to 158 |
| Cc1cccc(-c2nccc(Nc3ccnc(Nc4cccc(NC(=O)NC5CNC5)c4)n3)n2)n1 [Compound 125, 1-(azetidin-3-yl)-3-[3-[[4-[[2-(6-methyl-2-pyridyl)pyrimidin-4-yl]amino]pyrimidin-2-yl]amino]phenyl]urea] | 0.0398 to 0.316 | 25.1 to 158 |
| Cc1cccc(-c2nccc(Nc3ccnc(Nc4ccc(Cl)c(N)c4)n3)n2)n1 [Compound 126, N2-(3-amino-4-chloro-phenyl)-N4-[2-(6-methyl-2-pyridyl)pyrimidin-4-yl]pyrimidine-2,4-diamine] | 0.398 to 3.16 | ≤ 20 |
| COC1CN(Cc2ccc(Nc3nccc(Nc4ccnc(-c5cccc(C)n5)n4)n3)cc2)C1 [Compound 127, N2-[4-[(3-methoxyazetidin-1-yl)methyl]phenyl]-N4-[2-(6-methyl-2-pyridyl)pyrimidin-4-yl]pyrimidine-2,4-diamine] | 0.0398 to 0.316 | 25.1 to 158 |
| Cc1cccc(-c2nccc(Nc3ccnc(Nc4ccc(C)c(NC(=O)C5CCNCC5)c4)n3)n2)n1 [Compound 128, N-[2-methyl-5-[[4-[[2-(6-methyl-2-pyridyl)pyrimidin-4-yl]amino]pyrimidin-2-yl]amino]phenyl]piperidine-4-carboxamide] | 0.0398 to 0.316 | ≤ 20 |
| Cc1cccc(-c2nccc(Nc3ccnc(Nc4ccc(CN5CCN6CCCC6C5)cc4)n3)n2)n1 (stereo not drawn) [Compound 129, N2-[4-(3,4,6,7,8,8a-hexahydro-1H-pyrrolo[1,2-a]pyrazin-2-ylmethyl)phenyl]-N4-[2-(6-methyl-2-pyridyl)pyrimidin-4-yl]pyrimidine-2,4-diamine] | 0.0398 to 0.316 | 25.1 to 158 |
| Cc1cccc(-c2nccc(Nc3ccnc(Nc4ccc(F)c(CN5C[C@@H](C)N[C@@H](C)C5)c4)n3)n2)n1 [Compound 130, N2-[4-fluoro-3-[[rac-(3R,5S)-3,5-dimethylpiperazin-1-yl]methyl]phenyl]-N4-[2-(6-methyl-2-pyridyl)pyrimidin-4-yl]pyrimidine-2,4-diamine] | 0.0398 to 0.316 | 25.1 to 158 |
| Cc1cccc(-c2nccc(Nc3ccnc(Nc4ccc(CN5CC(O)C5)cc4)n3)n2)n1 [Compound 131, 1-[[4-[[4-[[2-(6-methyl-2-pyridyl)pyrimidin-4-yl]amino]pyrimidin-2-yl]amino]phenyl]methyl] azetidin-3-ol] | 0.0398 to 0.316 | 25.1 to 158 |
| Cc1cccc(-c2nccc(Nc3ccnc(Nc4ccc(CN5CCNC[C@@H]5CO)cc4)n3)n2)n1 [Compound 132, [(2R)-1-[[4-[[4-[[2-(6-methyl-2-pyridyl)pyrimidin-4-yl]amino]pyrimidin-2-yl]amino]phenyl]methyl]piperazin-2-yl]methanol] | 0.0398 to 0.316 | 25.1 to 158 |
| Cc1cccc(-c2nccc(Nc3ccnc(Nc4ccc(C5CCNCC5)cc4)n3)n2)n1 [Compound 133, N4-[2-(6-methyl-2-pyridyl)pyrimidin-4-yl]-N2-[4-(4-piperidyl)phenyl]pyrimidine-2,4-diamine] | 0.0398 to 0.316 | 25.1 to 158 |
| Cc1cccc(-c2nccc(Nc3ccnc(Nc4cccc(NC(=O)C5CCN(CCN(C)C)CC5)c4)n3)n2)n1 [Compound 134, 1-[2-(dimethylamino)ethyl]-N-[3-[[4-[[2-(6-methyl-2-pyridyl)pyrimidin-4-yl]amino]pyrimidin-2-yl]amino]phenyl]piperidine-4-carboxamide] | 0.0398 to 0.316 | 25.1 to 158 |
| Cc1cccc(-c2nccc(Nc3ccnc(Nc4ccc(Cl)c(NC(=O)C5CCNCC5)c4)n3)n2)n1 [Compound 135, N-[2-chloro-5-[[4-[[2-(6-methyl-2-pyridyl)pyrimidin-4-yl]amino]pyrimidin-2-yl]amino]phenyl]piperidine-4-carboxamide] | 0.0398 to 0.316 | ≤ 20 |
| Cc1cccc(-c2nccc(Nc3ccnc(Nc4ccc(N5CCN(Cc6ccccn6)CC5)cc4)n3)n2)n1 [Compound 136, N4-[2-(6-methyl-2-pyridyl)pyrimidin-4-yl]-N2-[4-[4-(2-pyridylmethyl)piperazin-1-yl]phenyl]pyrimidine-2,4-diamine] | 0.0398 to 0.316 | 25.1 to 158 |
| CNC1CCN(c2ccc(Nc3nccc(Nc4ccnc(-c5cc(Cl)ccc5F)n4)n3)cc2)CC1 [Compound 137, N4-[2-(5-chloro-2-fluoro-phenyl)pyrimidin-4-yl]-N2-[4-[4-(methylamino)-1-piperidyl]phenyl]pyrimidine-2,4-diamine] | 0.0398 to 0.316 | 25.1 to 158 |
| Cc1cccc(-c2nccc(Nc3ccnc(Nc4ccc(CN5CCCC(C(=O)OC6CNC6)C5)cc4)n3)n2)n1 (stereo not drawn) [Compound 138, azetidin-3-yl 1-[[4-[[4-[[2-(6-methyl-2-pyridyl)pyrimidin-4-yl]amino]pyrimidin-2-yl]amino]phenyl]methyl] piperidine-3-carboxylate] | 0.0398 to 0.316 | 25.1 to 158 |
| Cc1cccc(-c2nccc(Nc3ccnc(Nc4ccc(CN5CCC[C@@H](C(=O)O[C@H]6CCN(C)C6)C5)cc4)n3)n2)n1 [Compound 139, [(3S)-1-methylpyrrolidin-3-yl] (3R)-1-[[4-[[4-[[2-(6-methyl-2-pyridyl)pyrimidin-4-yl]amino]pyrimidin-2-yl]amino]phenyl]methyl] piperidine-3-carboxylate] | 0.0398 to 0.316 | ≤ 20 |
| Cc1cccc(-c2nccc(Nc3ccnc(Nc4nc(C(=O)NCC5(CO)CNC5)cs4)n3)n2)n1 [Compound 140, N-[[3-(hydroxymethyl)azetidin-3-yl]methyl]-2-[[4-[[2-(6-methyl-2-pyridyl)pyrimidin-4-yl]amino]pyrimidin-2-yl]amino]thiazole-4-carboxamide] | 0.0398 to 0.316 | 25.1 to 158 |
| Cc1cccc(-c2nccc(Nc3ccnc(Nc4cccc(CN5CCOCC5)c4)n3)n2)n1 [Compound 141, N4-[2-(6-methyl-2-pyridyl)pyrimidin-4-yl]-N2-[3-(morpholinomethyl)phenyl] pyrimidine-2,4-diamine] | 0.0398 to 0.316 | 25.1 to 158 |

From patent publication US20230399312A1, “SUBSTITUTED PYRIMIDINES AND METHODS OF USE” (THERAVANCE BIOPHARMA R&D IP, LLC, priority 2020, published 2023)
